Patent US20110015080A1, “Solution-based methods for RNA expression profiling” (MASSACHUSETTS INSTITUTE OF TECHNOLOGY, priority 2005, published 2011)
Values joined by “and” are separate entries in the source; they are usually repeats but may differ in a detail not shown here. Equal entries are not always repeated.

Test system: HL60 (human promyelocytic leukemia) cells
Test: LMA-FlexMAP analysis of microtiter well cultures of HL60 cells treated with tretinoin or DMSO, KNN classification
[1] = HL60 microtiter plate wells tretinoin40-47 (replicates)

## CC1=C(/C=C/C(C)=C/C=C/C(C)=C/C(=O)O)C(C)(C)CCC1 [tretinoin, all-trans-retinoic acid]
[1]
  NM_000632 LUA#12 FlexMap level: 60 and 298 and 544 and 994 and 932 and 486 and 500 and 525.5
  NM_000698 LUA#14 FlexMap level: 45.5 and 156 and 269 and 394 and 342 and 297.5 and 363 and 352
  NM_000875 LUA#55 FlexMap level: 184 and 1002 and 1389.5 and 1772 and 1303 and 1192 and 1271 and 810
  NM_000884 LUA#81 FlexMap level: 82 and 506 and 875 and 897 and 732.5 and 789 and 805 and 513.5
  NM_000962 LUA#7 FlexMap level: 63.5 and 391 and 761 and 776 and 470 and 646.5 and 671.5 and 452
  NM_001034 LUA#67 FlexMap level: 65 and 447 and 989 and 779 and 733.5 and 645 and 1063 and 476
  NM_001101 LUA#34 FlexMap level: 260.5 and 1606 and 2206 and 2257 and 1647 and 1943 and 1881 and 904
  NM_001469 LUA#79 FlexMap level: 65 and 320.5 and 885 and 739 and 765 and 734 and 561 and 370
  NM_001498 LUA#18 FlexMap level: 126.5 and 890.5 and 1632 and 1563.5 and 1134 and 1467 and 1510 and 888
  NM_001684 LUA#23 FlexMap level: 884 and 3012 and 3316.5 and 3512 and 3036 and 2755.5 and 2662 and 1478
  NM_001948 LUA#84 FlexMap level: 255 and 1430 and 2470.5 and 2273.5 and 1891 and 2131 and 2132.5 and 1104
  NM_001974 LUA#11 FlexMap level: 38.5 and 98 and 351 and 256 and 258 and 253.5 and 286.5 and 224
  NM_002166 LUA#25 FlexMap level: 411.5 and 1693.5 and 2999 and 2964 and 2068 and 1985 and 2518 and 1239
  NM_002358 LUA#53 FlexMap level: 64 and 339 and 572 and 611 and 366 and 481 and 531 and 433
  NM_002467 LUA#90 FlexMap level: 383 and 983.5 and 1643 and 1800 and 1920 and 1518 and 1725 and 1034
  NM_002468 LUA#40 FlexMap level: 48 and 285.5 and 324 and 728 and 896.5 and 343 and 632 and 464
  NM_002539 LUA#74 FlexMap level: 94 and 559 and 886 and 952 and 715 and 861.5 and 822 and 535
  NM_002624 LUA#36 FlexMap level: 53 and 180.5 and 397 and 381 and 330.5 and 336 and 400.5 and 394
  NM_002664 LUA#38 FlexMap level: 73 and 478 and 906 and 798 and 599 and 773 and 748 and 512
  NM_002970 LUA#42 FlexMap level: 92 and 298 and 598 and 589 and 622.5 and 577.5 and 586 and 478
  NM_002982 LUA#45 FlexMap level: 286 and 2331 and 2514 and 4037 and 4231 and 2722 and 2898 and 1696.5
  NM_003132 LUA#68 FlexMap level: 41 and 126 and 264.5 and 264 and 195.5 and 257 and 296 and 327.5
  NM_003172 LUA#19 FlexMap level: 818 and 3200.5 and 3348 and 3577.5 and 2983 and 2898 and 2747 and 1471
  NM_003332 LUA#43 FlexMap level: 274 and 646 and 1341.5 and 1324 and 1984.5 and 1651 and 2226 and 1241.5
  NM_003581 LUA#62 FlexMap level: 62.5 and 372 and 962 and 808 and 751 and 735.5 and 801 and 515
  NM_003644 LUA#17 FlexMap level: 69 and 255 and 415 and 428 and 359 and 374 and 395 and 302
  NM_003752 LUA#82 FlexMap level: 115.5 and 536.5 and 1061 and 1015.5 and 768.5 and 1020 and 912.5 and 596
  NM_003825 LUA#8 FlexMap level: 81.5 and 192.5 and 338 and 383.5 and 307.5 and 331 and 502 and 476.5
  NM_003879 LUA#24 FlexMap level: 225 and 1355.5 and 1937.5 and 1983.5 and 1275 and 1677 and 1564 and 923
  NM_004079 LUA#21 FlexMap level: 350 and 2202 and 3008 and 3030.5 and 2326 and 2816 and 2701 and 1488
  NM_004095 LUA#59 FlexMap level: 72 and 383 and 714 and 665 and 496.5 and 650.5 and 593.5 and 442
  NM_004106 LUA#44 FlexMap level: 47 and 142 and 253.5 and 302 and 321 and 271 and 273.5 and 267
  NM_004134 LUA#76 FlexMap level: 78 and 432.5 and 873 and 866 and 531 and 759 and 744 and 493
  NM_004152 LUA#31 FlexMap level: 58 and 337 and 710 and 811 and 628.5 and 782 and 652 and 408.5
  NM_004514 LUA#46 FlexMap level: 176 and 834 and 1159.5 and 1224 and 964 and 992 and 1017 and 626
  NM_004526 LUA#88 FlexMap level: 642 and 1081.5 and 1122 and 840 and 1033 and 1012 and 641.5
  NM_004602 LUA#32 FlexMap level: 458.5 and 678 and 736.5 and 1957 and 1765.5 and 664 and 571.5 and 773.5
  NM_004631 LUA#52 FlexMap level: 86.5 and 322 and 705 and 629 and 524 and 633 and 667 and 532
  NM_004723 LUA#20 FlexMap level: 89 and 620 and 1056 and 982 and 761 and 886 and 853 and 494.5
  NM_004741 LUA#89 FlexMap level: 131 and 383 and 972 and 1003 and 933 and 920 and 1126 and 571
  NM_004759 LUA#37 FlexMap level: 40.5 and 67.5 and 186.5 and 169 and 134.5 and 142 and 145 and 190
  NM_004782 LUA#4 FlexMap level: 163 and 811 and 1306 and 1264 and 1063.5 and 1077 and 1094 and 639
  NM_005008 LUA#77 FlexMap level: 73 and 425 and 885 and 923 and 779.5 and 801 and 828 and 525
  NM_005375 LUA#86 FlexMap level: 273 and 1380 and 2455 and 2357.5 and 2068 and 2193 and 2264 and 1273.5
  NM_005566 LUA#85 FlexMap level: 129.5 and 862.5 and 1842.5 and 1550 and 1000 and 1282 and 1196 and 592
  NM_005736 LUA#1 FlexMap level: 92 and 522 and 909 and 1432 and 1896 and 847 and 1205.5 and 695
  NM_005914 LUA#60 FlexMap level: 303 and 1363 and 2538.5 and 2273 and 1739 and 1694 and 1933.5 and 1154.5
  NM_005915 LUA#72 FlexMap level: 48 and 300 and 495 and 474 and 315.5 and 496 and 401.5 and 256.5
  NM_005952 LUA#66 FlexMap level: 104 and 573 and 891 and 961 and 623.5 and 847.5 and 775 and 571
  NM_005980 LUA#73 FlexMap level: 35.5 and 83 and 102 and 162 and 149 and 95 and 114 and 168
  NM_006019 LUA#35 FlexMap level: 41 and 192.5 and 363 and 400.5 and 353 and 361 and 402 and 332
  NM_006138 LUA#56 FlexMap level: 70 and 325.5 and 443 and 659.5 and 488 and 437 and 429 and 341
  NM_006432 LUA#27 FlexMap level: 90 and 394 and 854.5 and 800 and 695 and 670 and 719 and 450
  NM_006452 LUA#71 FlexMap level: 207.5 and 1176 and 1736 and 1656.5 and 1374 and 1531 and 1587 and 911.5
  NM_006457 LUA#13 FlexMap level: 36 and 51 and 83 and 94 and 84 and 95 and 132 and 200
  NM_006773 LUA#47 FlexMap level: 164 and 717 and 1137 and 1120.5 and 783 and 937.5 and 907 and 576.5
  NM_006948 LUA#51 FlexMap level: 34 and 49 and 82 and 95 and 83 and 79.5 and 85.5 and 106.5
  NM_006985 LUA#58 FlexMap level: 90 and 720 and 1223 and 1310 and 813 and 1136.5 and 983 and 635
  NM_007282 LUA#16 FlexMap level: 778.5 and 3067.5 and 3626 and 3678 and 3097 and 3055 and 2958.5 and 1505
  NM_007331 LUA#50 FlexMap level: 88 and 474 and 915.5 and 927.5 and 770 and 739 and 835 and 583
  NM_013402 LUA#54 FlexMap level: 114 and 705 and 1150 (2×) and 806 and 1051.5 and 1087 and 711
  NM_014288 LUA#48 FlexMap level: 154 and 477.5 and 801 and 816 and 527.5 and 706 and 650 and 453
  NM_014333 LUA#26 FlexMap level: 180.5 and 949.5 and 1577 and 1549 and 1309 and 1337 and 1390 and 811
  NM_014366 LUA#61 FlexMap level: 383 and 1773 and 2236 and 2380 and 1850 and 1787.5 and 1681.5 and 1009.5
  NM_014573 LUA#70 FlexMap level: 43 and 143 and 320 and 325 and 274 and 243 and 407.5 and 300
  NM_014962 LUA#5 FlexMap level: 152.5 and 726 and 1269 and 1290 and 1213 and 1076 and 1134 and 717
  NM_015201 LUA#57 FlexMap level: 182 and 1154 and 1768 and 1714 and 1251 and 1398.5 and 1507 and 930.5
  NM_016061 LUA#9 FlexMap level: 134 and 674 and 1086 and 1267.5 and 863 and 975 and 1073.5 and 741
  NM_017440 LUA#49 FlexMap level: 101 and 405.5 and 707 and 774 and 716 and 607 and 693 and 477
  NM_018115 LUA#63 FlexMap level: 746.5 and 3193 and 3722 and 4141 and 3225.5 and 3292.5 and 3054 and 1569
  NM_018164 LUA#69 FlexMap level: 52 and 170 and 429 and 380 and 304.5 and 304 and 358.5 and 234
  NM_018217 LUA#3 FlexMap level: 189 and 990 and 1514 and 1581 and 1499 and 1286 and 1386 and 854.5
  NM_018256 LUA#83 FlexMap level: 102 and 717 and 1252 and 1104 and 692.5 and 1077 and 929 and 470
  NM_018890 LUA#33 FlexMap level: 562 and 2557 and 3812.5 and 4178 and 4310 and 3724.5 and 2984 and 1462.5
  NM_019058 LUA#75 FlexMap level: 258 and 1804 and 2807 and 2882 and 2288 and 2430 and 2201 and 1184
  NM_020117 LUA#78 FlexMap level: 236.5 and 1585 and 2193 and 2242.5 and 1690 and 1988 and 1734 and 848.5
  NM_021103 LUA#41 FlexMap level: 591.5 and 1730 and 2238 and 2731 and 2283 and 1975 and 1828.5 and 1027
  NM_021203 (LUA#80) FlexMap level: 53 and 171 and 386 and 377.5 and 283.5 and 348 and 279
  NM_021974 LUA#64 FlexMap level: 268 and 1606 and 2307 and 2301 and 1472 and 1996 and 1890 and 1117.5
  NM_024045 LUA#65 FlexMap level: 85 and 495 and 831 and 833.5 and 527 and 681 and 728.5 and 471
  NM_032571 LUA#15 FlexMap level: 31 and 109 and 203 and 222.5 and 165.5 and 191 and 270.5 and 253.5
  NM_173823 LUA#6 FlexMap level: 84 and 594.5 and 1106.5 and 1168.5 and 1130.5 and 1080 and 1163 and 807
  TFRC LUA#92 FlexMap level: 89 and 400 and 794 and 910.5 and 811 and 827.5 and 1042 and 592
HL60 microtiter well cultures, one value per tretinoin well
  NM_021203 (LUA#80) FlexMap level: 416 and 381.5 and 345 and 387 and 409 and 426 and 427 and 412
